Laboratory results reported in ChEMBL document CHEMBL5226289, “Discovery of natural anti-inflammatory alkaloids: Potential leads for the drug discovery for the treatment of inflammation” (Eur J Med Chem, 2021).
In brackets after ≈: the same amount, converted by molar mass. Blank lines part the entries; values can stand above or below the molecule they belong to.

Legend:
[1] = Antiinflammatory activity in rat polymorphonuclear leucocyte cells assessed as inhibition of PAF-induced beta-glucuronidase release at 10 uM preincubated for 20 mins followed by PAF addition relative to control; format: functional
[2] = Inhibition of TNF-alpha production in LPS-induced human U-937 cells preincubated with compound for 30 mins followed by LPS induction and measured after 4 hrs; format: functional, cell-based
[3] = tested on: THP-1; experiment: Antiinflammatory activity in human THP-1 cells assessed as inhibition of TNF-alpha production; format: functional
[4] = tested on: THP-1; experiment: Antiinflammatory activity in human THP-1 cells assessed as inhibition of IL-6 production; format: functional
[5] = Inhibition of NO production in LPS-induced mouse N9 cells incubated for 48 hrs by griess reagent based assay; format: functional, cell-based; settings: N9, 48 h
[6] = tested on: Mus musculus; experiment: Prevention of LPS-induced mortality in C57BL/6 mouse model at 30 mg/kg, ip measured after 5 days relative to control; format: functional; settings: time 5 day
[7] = tested on: RAW264.7; experiment: Inhibition of NO production in LPS-stimulated mouse RAW264.7 cells preincubated with compound for 30 mins followed by LPS stimulation and measured after 24 hrs by Griess reagent-based assay; format: functional, cell-based
[8] = tested on: RAW264.7; experiment: Inhibition of NO production in LPS-stimulated mouse RAW264.7 cells preincubated with compound for 24 hrs followed by LPS stimulation and measured after 2 hrs by Griess reagent-based assay; format: functional, cell-based
[9] = tested on: RAW264.7; experiment: Antiinflammatory activity in mouse RAW264.7 cells assessed as inhibition of LPS-stimulated iNOS activity preincubated with compound for 24 hrs followed by LPS stimulation for 2 hrs and measured 2 hrs after NADPH addition by fluorescence based assay; format: functional, cell-based
[10] = Inhibition of LPS-induced NO production in mouse BV-2 cells […]; format: functional, cell-based
[11] = tested on: Mus musculus; experiment: Antiinflammatory activity in mouse assessed as inhibition of xylene-induced ear edema at 5 mg/kg, IG pre-treated for 30 mins followed by xylene administration and measured after 1 hrs relative to control; format: functional; settings: po, time 1.5 hrs
[12] = tested on: RAW264.7; experiment: Inhibition of NO production in LPS-stimulated mouse RAW264.7 cells preincubated with compound for 4 hrs followed by LPS stimulation and measured after 24 hrs by Griess reagent-based assay; format: functional, cell-based
[13] = tested on: RAW264.7; experiment: Inhibition of NO production in LPS-stimulated mouse RAW264.7 cells preincubated with compound for 3 hrs followed by LPS stimulation and measured after 20 hrs by Griess reagent-based assay; format: functional, cell-based
[14] = tested on: Mus musculus; experiment: Antiinflammatory activity against capsaicin-induced ear edema Swiss albino mouse model assessed as inhibition of plasma extravasation at 100 umol/kg, po pre-treated with compound for 40 mins followed by capsaicin stimulation and measured after 30 mins relative to control; format: functional
[15] = tested on: Mus musculus; experiment: Antiinflammatory activity in carrageenan-induced peritoneal Swiss albino mouse model assessed as decrease in number of leukocyte cells at 100 umol/kg, po pre-treated for 30 mins followed by carrageenan induction and measured after 4 hrs relative to control; format: functional; parameters: scale not given: the % may be the effect or the level left; settings: dose 100 µmol/kg, time 4.5 hrs
[16] = tested on: J774.1; experiment: Inhibition of NO production in LPS-stimulated mouse J774.1 cells; format: functional, cell-based
[17] = tested on: RAW264.7; experiment: Antiinflammatory activity against mouse RAW264.7 cells assessed as inhibition of cell growth; format: functional, cell-based

Structure (SMILES): COC1O[C@H]([C@@H]2c3cc4c(cc3CCN2C)OCO4)c2ccc3c(c21)OCO3 (stereo partly drawn)
- inhibition at 10 µM [1]: 32.4%

- IC50 [2]: 1.52 µM
Structure (SMILES): CCCCCCCCCC(=O)C/C(=C\c1cc(CCC)ncc1C(=O)OC)C(C)=O

Structure (SMILES): CC(=O)O[C@H]1CN(C)CC[C@H]1c1c(O)cc(O)c2c(=O)cc(C)oc12
- inhibition (INH) [3]: 81.1%
- inhibition (INH) [4]: 20.5%

Structure (SMILES): C=C[C@@H]1[C@@H](O[C@@H]2O[C@H](CO)[C@@H](O)[C@H](O)[C@H]2O)OC=C(C(=O)OC)[C@@H]1C[C@@H]1NCCc2c1[nH]c1ccccc21
- IC50 [5]: 8.3 µM

Structure (SMILES): COc1ccc2c(c1)[nH]c1c(/C=C/C(=O)O)nccc12
- Activity [6]: 12.5%

Structure (SMILES): COC1O[C@@H]([C@@H]2c3cc4c(cc3CCN2C)OCO4)c2ccc3c(c21)OCO3 (stereo partly drawn)
- inhibition at 10 µM [1]: 35.6%

- IC50 [7]: 48.4 µM
Structure (SMILES): COc1c(O)ccc2c1cnc1c3cc4c(cc3ccc21)OCO4 [DECARINE]

- IC50 [8]: 11.2 µM
- IC50 [9]: 5.4 µM
Structure (SMILES): C=CC(C)(C)c1[nH]c2cc3c(cc2c1/C=C1\NC(=O)[C@@H]2CCCN2C1=O)C=CC(C)(C)O3

Structure (SMILES): CC(C)=CCOc1ccc(CCNC(=O)c2ccccc2)cc1
- IC50 [10]: 4.9 µM

Structure (SMILES): COC(=O)C1=C2Nc3c(O)cccc3[C@@]23CCN2C[C@@H]([C@H](C)O)[C@@H]1C[C@H]23 [SCHOLARICINE]
- inhibition in vivo at 5 mg/kg [11]: 42%

- IC50 [12]: 18.1 µM
Structure (SMILES): COc1cc(/C=C/CO)ccc1O[C@H]1CCCNC1=O

- IC50 [13]: 3.4 µg/mL (≈ 10.4 µM)
Structure (SMILES): C=C1C=C2C=C[C@H](OC)C[C@@]23c2cc4c(cc2[C@@H](O)CN13)OCO4

Structure (SMILES): COC(=O)/C1=C/c2c([nH]c3ccccc23)/C(C(=O)OC)=C\c2c1[nH]c1ccccc21 [CAULERPIN]
- inhibition in vivo at 100 µmol/kg [14]: 55.8%
- Activity [15]: 48.3%

Structure (SMILES): COC(=O)[C@@]1(O)C2=Nc3c(O)cccc3[C@@]23C[C@H]2C[C@]4(C(C)=O)ON2[C@H]3C[C@H]14
- IC50 [16]: 49.2 µM
- IC50 [17]: 39.6 µM
